# Measured values published in the supplement of paper PMC10307832.
# Assays:
# Assay in all cases: relative viability (nuclei count vs DMSO), 5 days (fraction); higher = more cells survive
# CAL-12T = tested on: CAL-12T
# Procedure, shortened: (§1)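 Medians of duplicate plates are given as relative viability. That measure is the nuclei count in treated wells divided by the count in vehicle wells. Counts were taken on 4× images of lung cancer cell lines in 1536-well plates, 5 days after pin-tool dosing the day after seeding with one drug alone or a fixed anchor-drug dose plus five library-drug doses (not always all listed) in √10 steps.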
# COR-L 105 = tested on: COR-L 105
# Procedure, shortened: as §1
# NCI-H2126 = tested on: NCI-H2126
# Procedure, shortened: as §1
# HOP-62 = tested on: HOP-62
# Procedure, shortened: as §1
# NCI-H322M = tested on: NCI-H322M
# Procedure, shortened: as §1
# LXF-289 = tested on: LXF-289
# Procedure, shortened: as §1
# HCC-15 = tested on: HCC-15
# Procedure, shortened: as §1
# NCI-H1666 = tested on: NCI-H1666
# Procedure, shortened: as §1
# HCC-78 = tested on: HCC-78
# Procedure, shortened: as §1
# ChaGo-K-1 = tested on: ChaGo-K-1
# Procedure, shortened: as §1
# NCI-H1975 = tested on: NCI-H1975
# Procedure, shortened: as §1
# NCI-H441 = tested on: NCI-H441
# Procedure, shortened: as §1
# NCI-H1755 = tested on: NCI-H1755
# Procedure, shortened: as §1
# NCI-H2085 = tested on: NCI-H2085
# Procedure, shortened: as §1
# NCI-H2023 = tested on: NCI-H2023
# Procedure, shortened: as §1
# NCI-H358 = tested on: NCI-H358
# Procedure, shortened: as §1
# ABC-1 = tested on: ABC-1
# Procedure, shortened: as §1
# UMC-11 = tested on: UMC-11
# Procedure, shortened: as §1
# EMC-BAC-2 = tested on: EMC-BAC-2
# Procedure, shortened: as §1
# NCI-H3122 = tested on: NCI-H3122
# Procedure, shortened: as §1
# EPLC-272H = tested on: EPLC-272H
# Procedure, shortened: as §1
# NCI-H1915 = tested on: NCI-H1915
# Procedure, shortened: as §1
compound,measurement,setting,value
COc1nc(C)cnc1NS(=O)(=O)c1cccnc1-c1ccc(-c2nnco2)cc1 [Zibotentan] + O=C(CCCCCCC(=O)Nc1ccccc1)NO [Vorinostat] (partner 1 µM),relative viability,CAL-12T; first compound 0.08 µM,0.887
same,relative viability,CAL-12T; first compound 0.253 µM,0.543
same,relative viability,CAL-12T; first compound 0.8 µM,0.742
same,relative viability,CAL-12T; first compound 2.53 µM,0.714
same,relative viability,COR-L 105; first compound 0.08 µM,0.904
same,relative viability,COR-L 105; first compound 0.253 µM,0.756
same,relative viability,COR-L 105; first compound 0.8 µM,0.781
same,relative viability,COR-L 105; first compound 2.53 µM,0.99
same,relative viability,NCI-H2126; first compound 0.08 µM,0.844
same,relative viability,NCI-H2126; first compound 0.253 µM,0.765
same,relative viability,NCI-H2126; first compound 0.8 µM,0.651
same,relative viability,NCI-H2126; first compound 2.53 µM,0.831
same,relative viability,HOP-62; first compound 0.08 µM,0.676
same,relative viability,HOP-62; first compound 0.253 µM,0.57
same,relative viability,HOP-62; first compound 0.8 µM,0.735
same,relative viability,HOP-62; first compound 2.53 µM,0.623
same,relative viability,NCI-H322M; first compound 0.08 µM,1.03
same,relative viability,NCI-H322M; first compound 0.253 µM,0.748
same,relative viability,NCI-H322M; first compound 0.8 µM,0.895
same,relative viability,NCI-H322M; first compound 2.53 µM,0.93
same,relative viability,LXF-289; first compound 0.08 µM,0.769
same,relative viability,LXF-289; first compound 0.253 µM,0.713
same,relative viability,LXF-289; first compound 0.8 µM,0.766
same,relative viability,LXF-289; first compound 2.53 µM,0.746
same,relative viability,HCC-15; first compound 0.08 µM,0.859
same,relative viability,HCC-15; first compound 0.253 µM,0.863
same,relative viability,HCC-15; first compound 0.8 µM,0.879
same,relative viability,HCC-15; first compound 2.53 µM,0.84
same,relative viability,NCI-H1666; first compound 0.08 µM,1.17
same,relative viability,NCI-H1666; first compound 0.253 µM,0.95
same,relative viability,NCI-H1666; first compound 0.8 µM,1.04
same,relative viability,NCI-H1666; first compound 2.53 µM,1.1
same,relative viability,HCC-78; first compound 0.08 µM,0.482
same,relative viability,HCC-78; first compound 0.253 µM,0.347
same,relative viability,HCC-78; first compound 0.8 µM,0.382
same,relative viability,HCC-78; first compound 2.53 µM,0.48
same,relative viability,ChaGo-K-1; first compound 0.08 µM,0.802
same,relative viability,ChaGo-K-1; first compound 0.253 µM,0.764
same,relative viability,ChaGo-K-1; first compound 0.8 µM,0.713
same,relative viability,ChaGo-K-1; first compound 2.53 µM,0.815
same,relative viability,NCI-H1975; first compound 0.08 µM,0.758
same,relative viability,NCI-H1975; first compound 0.253 µM,0.646
same,relative viability,NCI-H1975; first compound 0.8 µM,0.632
same,relative viability,NCI-H1975; first compound 2.53 µM,0.7
same,relative viability,NCI-H441; first compound 0.08 µM,0.78
same,relative viability,NCI-H441; first compound 0.253 µM,0.721
same,relative viability,NCI-H441; first compound 0.8 µM,0.783
same,relative viability,NCI-H441; first compound 2.53 µM,0.794
same,relative viability,NCI-H1755; first compound 0.08 µM,0.851
same,relative viability,NCI-H1755; first compound 0.253 µM,0.742
same,relative viability,NCI-H1755; first compound 0.8 µM,0.803
same,relative viability,NCI-H1755; first compound 2.53 µM,0.818
same,relative viability,NCI-H2085; first compound 0.08 µM,0.762
same,relative viability,NCI-H2085; first compound 0.253 µM,0.766
same,relative viability,NCI-H2085; first compound 0.8 µM,0.769
same,relative viability,NCI-H2085; first compound 2.53 µM,0.824
same,relative viability,NCI-H2023; first compound 0.08 µM,0.849
same,relative viability,NCI-H2023; first compound 0.8 µM,0.562
same,relative viability,NCI-H2023; first compound 2.53 µM,0.846
same,relative viability,NCI-H358; first compound 0.08 µM,0.563
same,relative viability,NCI-H358; first compound 0.253 µM,0.552
same,relative viability,NCI-H358; first compound 2.53 µM,0.751
same,relative viability,ABC-1; first compound 0.08 µM,1.01
same,relative viability,ABC-1; first compound 0.253 µM,0.77
same,relative viability,ABC-1; first compound 0.8 µM,1.05
same,relative viability,ABC-1; first compound 2.53 µM,1.53
same,relative viability,UMC-11; first compound 0.08 µM,0.408
same,relative viability,UMC-11; first compound 0.253 µM,0.418
same,relative viability,UMC-11; first compound 0.8 µM,0.384
same,relative viability,UMC-11; first compound 2.53 µM,0.293
same,relative viability,EMC-BAC-2; first compound 0.08 µM,0.907
same,relative viability,EMC-BAC-2; first compound 0.8 µM,0.546
same,relative viability,EMC-BAC-2; first compound 2.53 µM,0.514
same,relative viability,NCI-H3122; first compound 0.08 µM,1.05
same,relative viability,NCI-H3122; first compound 0.253 µM,1.03
same,relative viability,NCI-H3122; first compound 0.8 µM,1.02
same,relative viability,NCI-H3122; first compound 2.53 µM,1.02
same,relative viability,EPLC-272H; first compound 0.253 µM,0.506
same,relative viability,EPLC-272H; first compound 0.8 µM,0.667
same,relative viability,EPLC-272H; first compound 2.53 µM,0.501
same,relative viability,NCI-H1915; first compound 0.08 µM,0.679
same,relative viability,NCI-H1915; first compound 0.253 µM,0.53
same,relative viability,NCI-H1915; first compound 0.8 µM,0.548
same,relative viability,NCI-H1915; first compound 2.53 µM,0.572
